In patent publication US7612072B2, “Amorphous form of a phosphoric acid salt of a dipeptidyl peptidase-IV inhibitor” (Merck & Co., Inc., priority 2004, dated 2009):

Assay: Solubility in water of the amorphous form
Type: physicochemical

**Q.** For `N[C@@H](CC(=O)N1CCn2c(nnc2C(F)(F)F)C1)Cc1cc(F)c(F)cc1F` [Compound I, (2R)-4-oxo-4-[3-(trifluoromethyl)-5,6-dihydro[1,2,4]triazolo[4,3-α]pyrazin-7(8H)-yl]-1-(2,4,5-trifluorophenyl)butan-2-amine dihydrogenphosphate], which solubility in water is on record?
**A.** high solubility in water
